These results are taken from US12171801B2, “Compositions and related methods for controlling vector-borne diseases” (priority 2017, dated 2024).

Experiment [1] relates to Acyrthosiphon pisum aphids. The experiment in a line: Aphid survival monitoring. Type of experiment: in vivo.
The test system of another experiment is Buchnera. Kind of experiment: Buchnera/aphid DNA copy number by qPCR. The experiment is classed as in vivo, Acyrthosiphon pisum.
Experiment [2] has as its system Acyrthosiphon pisum aphids. Kind of experiment: Aphid developmental stage monitoring. The settings on record: for aphids that did not mature further than the 4rd instar stage: 11 days post-treatment. Type of experiment: in vivo. How it is done:
(§1) In addition, the developmental stage (1st, 2nd, 3rd, 4th, 5th instar) was determined daily throughout the experiment. Once an aphid reached the 4th instar stage, they were given their own artificial feeding system in a deep petri dish so that fecundity could be monitored once they reached adulthood.
Each treatment group received approximately the same number of individuals from each of the collection plant. For each treatment, 20 aphids were placed onto each leaf. Aphids were monitored daily for survival and dead aphids were removed when they were discovered. In addition, the developmental stage (1st, 2nd, 3rd, 4th, 5th instar, and 5 R, representing a reproducing 5th instar) was determined daily throughout the experiment. Pictures of aphids were taken throughout the experiment to evaluate size differences between treatment groups.
Aphids LSR-1 (which harbor only Buchnera), Acyrthosiphon pisum were grown on fava bean plants (Vroma vicia faba from Johnny's Selected Seeds) in a climate-controlled incubator (16 h light/8 h dark photoperiod; 60±5% RH; 25±2° C.). Prior to being used for aphid rearing, fava bean plants were grown in potting soil at 24° C. with 16 h of light and 8 h of darkness. To limit maternal effects or health differences between plants, 5-10 adults from different plants were distributed among 10 two-week-old plants, and allowed to multiply to high density for 5-7 days. For experiments, first and second instar aphids were collected from healthy plants and divided into 2 different treatment groups: 1) negative control (leaf injected with water plus blue food coloring) and 2) leaf injected with 50 μg/ml rifampicin in water plus blue food coloring. Each treatment group received approximately the same number of individuals from each of the collection plants. For treatment, rifampicin stock solution (25 mg/ml in 100% methanol) was diluted to 50 μg/ml in water plus blue food coloring. The solution was then placed into a 1.5 ml Eppendorf tube with a fava bean stem perfused with the solutions and the opening of the tube was closed using parafilm. This feeding system was then placed into a deep petri dish (Fisher Scientific, Cat #FB0875711) and aphids were applied to the leaves of the plant. For each treatment, 74-81 aphids were placed onto each leaf. The feeding systems were changed every 2-3 days throughout the experiment. Aphids were monitored daily for survival and dead aphids were removed from the deep petri dish when they were discovered. In addition, the developmental stage (1st, 2nd, 3rd, 4th, 5th and 5 R (5th that has reproduced) instar) was determined daily throughout the experiment.
In addition, the developmental stage (1st 2nd, 3rd, 4th, 5th and 5 R (5th that has reproduced) instar) was determined daily throughout the experiment.
(§2) In addition, the developmental stage (1st, 2nd, 3rd, 4th, 5th, and 5 R (5th that has reproduced) instar) was determined daily throughout the experiment.
In addition, the developmental stage (1st, 2nd, 3rd, 4th, 5th and 5 R (5th that has reproduced) instar) was determined daily throughout the experiment.
In addition, the developmental stage (1st, 2nd, 3rd, 4th, 5th, and 5 R (5th instar aphids that are reproducing) instar) was determined daily throughout the experiment.
In addition, the developmental stage (1st, 2nd, 3rd 4th and 5th instar) was determined daily throughout the experiment.
(§3) In addition, the developmental stage (1st, 2nd, 3rd, 4th, 5th, and 5 R (5th that has reproduced) instar) was determined daily throughout the experiment. Once an aphid reached the 4th instar stage, they were given their own artificial feeding system in a deep petri dish so that fecundity could be monitored once they reached adulthood.
as §2

The subject of experiment [3] is Acyrthosiphon pisum aphids. Kind of experiment: Aphid size (body area) from images. Type of experiment: in vivo. The settings on record: 10 or 100 uM in artificial diet, 3 days post-treatment. How it is done: (§4) For adult aphids, new nymphs were counted daily and then discarded. At the end of the experiments, fecundity was determined as the mean number of offspring produced daily once the aphid reached adulthood. Pictures of aphids were taken throughout the experiment to evaluate size differences between treatment groups.
Each treatment group received approximately the same number of individuals from each of the collection plant. For each treatment, 20 aphids were placed onto each leaf. Aphids were monitored daily for survival and dead aphids were removed when they were discovered. In addition, the developmental stage (1st, 2nd, 3rd, 4th, 5th instar, and 5 R, representing a reproducing 5th instar) was determined daily throughout the experiment. […]
(§5) For adult aphids, new nymphs were counted daily and then discarded. At the end of the experiments, fecundity was measured in two ways: 1) the mean day at which the first offspring for the treatment group was determined and 2) the mean number of offspring produced daily once the aphid reached adulthood. […]
Aphids LSR-1 (which harbor only Buchnera), Acyrthosiphon pisum were grown on fava bean plants (Vroma vicia faba from Johnny's Selected Seeds) in a climate-controlled incubator (16 h light/8 h dark photoperiod; 60±5% RH; 25±2° C.). […] Aphids were monitored daily for survival and dead aphids were removed from the deep petri dish when they were discovered. […]

The subject of experiment [4] is Acyrthosiphon pisum aphids. Kind of experiment: Aphid fecundity. The settings on record: 10 or 100 uM. The experiment is classed as in vivo. Here is the method:
as §1, §4, §3, §5
In addition, the developmental stage (1st, 2nd, 3rd, 4th, 5th instar) was determined daily throughout the experiment. […]

In experiment [5] the test system is Anopheles coluzzii mosquitoes. The experiment in a line: Survival of mosquitoes given azithromycin blood meals. The experiment is classed as in vivo. As to conditions: azithromycin 0.1, 1 or 5 μg/ml in blood meals. How it is done:
For each Plasmodium infection, at least 100 age-matched, 2- to 3-day-old, mosquitoes per condition are offered a control or experimental blood meal from a membrane-feeding device (2 ml Eppendorf tube) covered with parafilm and kept at 37° C. and nonengorged mosquitoes are removed. Meals are given every four days for a total of three blood meals. Between the blood meals, mosquitoes are provided with a cotton pad moistened with distilled water for oviposition. Unfed mosquitoes are not removed after the second and later blood meals. Deaths are counted daily and carcasses are removed and stored for Asaia analysis as described herein. At least 50 mosquitoes per concentration of azithromycin are used for each replicate. At the end of the last blood meal, mosquitoes are kept for 12 hours before dissection.
The survival rates of mosquitoes treated with azithromycin are compared to the mosquitoes treated with the negative control.

For the next experiment, the system named is Asaia. Kind of experiment: Asaia quantification by qPCR in midguts of azithromycin blood-fed mosquitoes. The experiment is classed as in vivo, Anopheles coluzzii. As to conditions: azithromycin 0.1, 1 or 5 μg/ml in blood meals; midgut. Here is the method: Therapeutic design: Blood meals mixed with azithromycin solutions are formulated with final antibiotic concentrations of 0 (negative control), 0.1, 1, or 5 μg/ml in 1 mL of blood.
Azithromycin solutions are made by dissolving azithromycin (SIGMA-ALDRICH, PZ0007) in DMSO. Different volumes of azithromycin solution are added to fresh blood to total 1 mL in preparation for blood meals. The final azithromycin concentrations in the blood are 0 (just solvent as control solution), 0.1, 1, or 5 μg/ml.
For each Plasmodium infection, at least 100 age-matched, 2- to 3-day-old, mosquitoes per condition are offered a control or experimental blood meal from a membrane-feeding device (2 ml Eppendorf tube) covered with parafilm and kept at 37° C. and nonengorged mosquitoes are removed. Meals are given every four days for a total of three blood meals. […] Deaths are counted daily and carcasses are removed and stored for Asaia analysis as described herein. […]
Before dissection, mosquitoes are immersed in 70% ethanol for 5 minutes then rinsed 3 times in sterile phosphate-buffered saline (PBS) to kill and remove surface bacteria, thus minimizing sample contamination with cuticle bacteria during dissection. […] The 16S ribosomal DNA (rDNA) is used for Asaia quantification and is shown as a ratio of the Anopheles housekeeping gene 40S ribosomal protein S7 (Vector-Base gene ID AGAP010592). […]
On the technique in general: Real-time PCR tracks product formation cycle by cycle.

The test system of experiment [6] is gram-negative and gram-positive bacteria as well as fungi. As to conditions: cited from earlier work.
[7] abbreviates: leaf coating, 10 uM in 0.025% Silwet L-77.

Entries after “also recorded” stand apart in the source; their conditions may differ.

Regarding `O=C/C=C/c1ccccc1` [trans-cinnemaldehyde], the aphid survival entry in experiment [1] (0.05%, 0.5%, and 5%) was “dose-dependent decrease in survival; also recorded: significantly lower”. The “Buchnera/aphid DNA copies” value with Buchnera (lowest concentration (0.5%), 3 days) is listed as “high ratios of Buchnera/aphid DNA copies”. Also, the aphid development entry is “delayed” in experiment [2] (0.05%, 0.5% and 5% in water, leaf perfusion and through plants, 3 days); “delayed aphid development” in experiment [2] (0.05%, 0.5% and 5% in water, leaf perfusion and through plants, 3 days, listed as Trans-cinnemaldehyde). Further, the “aphid development (stage reached)” value in experiment [2] (5%) is given as “remained at the 1st instar stage throughout the course of the experiment”.
Turning to `CC(C)(CO)[C@@H](O)C(=O)NCCCO` [pantothenol], the aphid survival entry is “increased aphid mortality; also recorded: negatively affected aphid fitness” in experiment [1] (10 or 100 uM in artificial diet, through plants); “lower survival rates” in experiment [1] (setting [7]); “aphid death” in experiment [1] (leaf coating, 10 uM in 0.025% Silwet L-77, listed as Pantothenol). Also, the “aphid size (area)” value in experiment [3] is recorded as “drastic effect; also recorded: smaller in area than untreated controls”. Besides, the “Buchnera/aphid DNA copies” value is “does not affect Buchnera/aphid DNA copy number directly” in the experiment with Buchnera (10 or 100 uM, 8 days) and “did not affect endosymbiotic Buchnera” in the experiment on Buchnera (10 or 100 uM, 8 days, listed as Pantothenol). The aphid reproduction result in experiment [4] is recorded as “loss of aphid reproduction”; in experiment [4] (listed as Pantothenol) it was “loss of reproduction”. Also, the aphid development result in experiment [2] (10 or 100 uM in artificial diet without essential amino acids, through plants, eNASCO) was “delayed aphid development”; in experiment [2] (setting [7]), “did not affect aphid development”.
As for `Cc1cc2c(C(C)C)c(O)c(O)c(C=O)c2c(O)c1-c1c(C)cc2c(C(C)C)c(O)c(O)c(C=O)c2c1O` [gossypol, gossypol acetic acid], in experiment [1] (0.5%, through plants), the “time after which aphids began dying” value came out at 2 days and the “time by which all aphids succumbed to treatment” value is recorded as not above 4 days.
With `CC[C@H]1OC(=O)[C@H](C)[C@@H](O[C@H]2C[C@@](C)(OC)[C@@H](O)[C@H](C)O2)[C@H](C)[C@@H](O[C@@H]2O[C@H](C)C[C@H](N(C)C)[C@H]2O)[C@](C)(O)C[C@@H](C)CN(C)[C@H](C)[C@@H](O)[C@]1(C)O` [azithromycin], the “survival rate of mosquitoes” value in experiment [5] is “decreased compared to the control”. Further, the “Asaia specific genes (16S rDNA qPCR, ratio to S7)” value with Asaia was “reduction of Asaia specific genes”.
With `CC(=O)CCC(=O)O` [levulinic acid], the aphid survival result is recorded as “higher mortality compared to control treated aphids” in experiment [1] (0.03%, 11-day experiment); “dose-dependent decrease in survival; also recorded: decrease in insect survival” in experiment [1] (0.03 or 0.3%); “significantly less” in experiment [1] (0.3%, 11-day experiment). Also, the results for the “aphids that did not mature further than the 4rd instar stage” value in experiment [2] (0.03%) and in experiment [2] (0.3%) were approximately 23% and approximately 63%, respectively. In experiment [2] (0.03 or 0.3% in water, leaf injection and through plant, eNASCO), the aphid development entry is given as “delayed aphid development”.

B1: NCR335: NCR peptide, SEQ ID NO: 197 (peptide)
chain: MKMRIHMAQIIMFFYALIIFLSPFLVDRRSFPSSFVSPKSYTSEIPCKATRDCPYELYYETKCVDSLCTY
On to B1, for which, in experiment [6], the antimicrobial activity result is “effective against gram-negative and gram-positive bacteria as well as fungi”.
